According to patent publication US20100256233A1, “SYSTEMS, METHODS AND COMPOSITIONS FOR REDUCTION OF INJURY FROM RADIATION EXPOSURE” (priority 2007, published 2010):

Assays:
BALB/c mice = test: Lethality / survival after total-body irradiation (TBI); type: in vivo
Experimental: All studies were performed with prior approval and in accordance with institutional and national standards of animal care. The studies were approved by an Institutional Animal Care and Use Committee (“IACUC”) and were performed in an accredited AAALAC facility. Male BALB/c mice (Charles River Laboratories) 8 to 10 weeks old were allowed to acclimate for 1 week prior to the start of the study. Mice were maintained in environment-controlled (temperature and lighting) animal facilities, provided food and water ad libitum, and randomly assigned to experimental groups.
TBI was delivered using a 185 TBq (5000 Ci) ^137Cs source (Mark I, J. L. Shepherd and Associates, San Fernando, Calif.). Doses ranged from sublethal exposures of 5.5 Gy to lethal exposures of 6.5 Gy and a supralethal exposure of 7.0 Gy. The dose rate was approximately 1 Gy per minute.
Survival was measured in mice after TBI with and without HDACi. Groups of mice were exposed to 6.5 or 7.0 Gy alone or in combination with HDACi, as described above. Survival was defined as the time from irradiation to the time of euthanasia, which occurred when animals had lost 20% or more of their body weight.

[1] = tested on: acetylation of histone H3; test: Western blot of acetylated histones in bone marrow after HDACi administration (HDACi activity); type: in vivo, mouse; settings: 10 h after first dose and 5 h after second dose, s.c., TSA 0.5 + 0.5 mg/kg, VPA 600 + 300 mg/kg
Experimental: […] or spleens were harvested at 10 h.
TSA is not selective and is expected to increase acetylation of histones non-specifically. FIG. 1 is a graph showing the acetylation of histone H3 relative to a beta-actin control in test samples. […] Bars indicate individual mice.

CC(/C=C/C(=O)NO)=C\[C@@H](C)C(=O)c1ccc(N(C)C)cc1 [TSA, trichostatin-A]
survival (BALB/c mice; 7 Gy TBI, TSA 0.5 mg/kg 24 h before TBI (FIG. 5)): increased survival | lethality (time for mice to lose 20% or more of their weight) (BALB/c mice; after TBI): reduce lethality in a dose-dependent manner | increase in acetylated form of histone H3 relative to the beta-actin control [1]: three to four-fold increase
